Measurements as given in US9491941B2, “(Hetero) arylacrylamides for the control of ectoparasites” (Novartis Tiergesundheit AG, priority 2012, dated 2016).

System: Lepeophtheirus Salmonis at Copeodid Stage (sea lice copepodids)
Assay: Activity in vitro against Lepeophtheirus salmonis at copepodid stage
Conditions: copepodids 1 hour contact in sea water, then 48 h untreated sea water; no movement over 80 seconds; serial dilution (MED)
Description: 3—Activity In Vitro Against Lepeophtheirus Salmonis at Copeodid Stage
Sea lice copepodids were used to seed a 96-well plate containing the test substances to be evaluated for antiparasitic activity. Each compound was tested by serial dilution in order to determine its minimal effective dose (MED). Copepodids were left in contact with the test compound diluted in sea water for 1 hour. They were then incubated in untreated sea water for 48 h. Efficacy against sea lice was then confirmed if no copepodid moved over a period of 80 seconds.

Structure (SMILES)	efficacy (EC80) [ppb]
O=C(/C=C/c1ccc(C(=O)NC2CON(CC(F)(F)F)C2=O)c2ccccc12)NC(c1cccc(C(F)(F)F)c1)C(F)(F)F (stereo not drawn) [Example 1.46]	50
N#CC1(NC(=O)c2ccc(/C=C/C(=O)NC(c3cccc(C(F)(F)F)c3)C(F)(F)F)c3ccccc23)CC1 (stereo not drawn) [Example 1.26]	0.5
N#CC1(NC(=O)c2ccc(/C=C/C(=O)NC(c3cccc(C(F)(F)F)c3)C(F)(F)F)c3ccccc23)CCC1 (stereo not drawn) [Example 1.44]	50
O=C(/C=C/c1ccc(C(=O)NC2CC2)c2ccccc12)NC(c1cccc(F)c1)C(F)(F)F (stereo not drawn) [Example 1.65]	5
O=C(/C=C/c1ccc(C(=O)NC2CC2)c2ccccc12)NC(c1cccc(Br)c1)C(F)(F)F (stereo not drawn) [Example 1.56]	50
O=C(/C=C/c1ccc(C(=O)NC2CC2)c2ccccc12)NC(c1cc(Cl)c(Cl)c(Cl)c1)C(F)(F)F (stereo not drawn) [Example 1.64]	5
CC1(NC(=O)c2ccc(/C=C/C(=O)NC(c3cccc(C(F)(F)F)c3)C(F)(F)F)c3ccccc23)CCC1 (stereo not drawn) [Example 1.41]	5
CCN1OCC(NC(=O)c2ccc(/C=C/C(=O)NC(c3cccc(C(F)(F)F)c3)C(F)(F)F)c3ccccc23)C1=O (stereo not drawn) [Example 1.34]	50
O=C(/C=C/c1ccc(C(=O)NC2CC(F)(F)C2)c2ccccc12)NC(c1cccc(C(F)(F)F)c1)C(F)(F)F (stereo not drawn) [Example 1.35]	50
O=C(/C=C/c1ccc(C(=O)NC2CC2)c2ccccc12)NC(c1cccc(OC(F)(F)F)c1)C(F)(F)F (stereo not drawn) [Example 1.61]	0.5
Cc1cc(/C=C/C(=O)NC(c2cccc(C(F)(F)F)c2)C(F)(F)F)sc1C(=O)NC1CC1 (stereo not drawn) [Example 2.4]	50
O=C(/C=C/c1ccc(C(=O)NC2CC2)c2ccccc12)NC(c1cc(Cl)cc(Cl)c1)C(F)(F)F (stereo not drawn) [Example 1.62]	50
O=C(/C=C/c1ccc(C(=O)NCC2CC2)c2ccccc12)NC(c1cccc(C(F)(F)F)c1)C(F)(F)F (stereo not drawn) [Example 1.1, N-(cyclopropylmethyl)-4-[(1E)-2-({2,2,2-trifluoro-1-[3-(trifluoromethyl)phenyl]ethyl}carbamoyl)eth-1-en-1-yl]naphthalene-1-carboxamide]	50
O=C(/C=C/c1ccc(C(=O)NC2CC2)c2ccccc12)NC(c1ccc(Cl)c(C(F)(F)F)c1)C(F)(F)F (stereo not drawn) [Example 1.66]	50
CCNC(=O)c1ccc(/C=C/C(=O)NC(c2cccc(C(F)(F)F)c2)C(F)(F)F)c2ccccc12 (stereo not drawn) [Example 1.13]	50
O=C(/C=C/c1ccc(C(=O)NC2CC2)c2ccccc12)NC(c1ccc(Cl)c(Cl)c1)C(F)(F)F (stereo not drawn) [Example 1.63]	50
O=C(/C=C/c1ccc(C(=O)NCc2ccco2)c2ccccc12)NC(c1cccc(C(F)(F)F)c1)C(F)(F)F (stereo not drawn) [Example 1.3]	50
O=C(/C=C/c1ccc(C(=O)NC2CC2)c2ccccc12)NC(c1cccc2ccccc12)C(F)(F)F (stereo not drawn) [Example 1.82]	50
O=C(/C=C/c1ccc(C(=O)NC2CC2)c2ccccc12)NC(c1cccc(C(F)(F)F)c1)C(F)(F)F (stereo not drawn) [Example 4.1]	50
Cc1cccc(C(NC(=O)/C=C/c2ccc(C(=O)NC3CC3)c3ccccc23)C(F)(F)F)c1 (stereo not drawn) [Example 1.58]	50
O=C(/C=C/c1ccc(C(=O)NC2CC2)c2ccccc12)NC(c1cccc(C(F)(F)F)c1)C(F)(F)F (stereo not drawn) [Example 1.5]	5
O=C(C=Cc1ccc(C(=O)NC2CC2F)c2ccccc12)NC(c1cccc(C(F)(F)F)c1)C(F)(F)F (stereo not drawn) [Example 1.40]	50
O=C(/C=C/c1ccc(C(=O)NC2CSC2)c2ccccc12)NC(c1cccc(C(F)(F)F)c1)C(F)(F)F (stereo not drawn) [Example 1.10]	50
CC(C)NC(=O)c1ccc(/C=C/C(=O)NC(c2cccc(C(F)(F)F)c2)C(F)(F)F)c2ccccc12 (stereo not drawn) [Example 1.27]	50
O=C(/C=C/c1ccc(C(=O)NCC2CSC2)c2ccccc12)NC(c1cccc(C(F)(F)F)c1)C(F)(F)F (stereo not drawn) [Example 1.43]	5
O=C(/C=C/c1ccc(C(=O)NC2CC2)c2cccnc12)NC(c1cccc(C(F)(F)F)c1)C(F)(F)F (stereo not drawn) [Example 3.2]	50
O=C(/C=C/c1ccc(C(=O)NC2CC(F)C2)c2ccccc12)NC(c1cccc(C(F)(F)F)c1)C(F)(F)F (stereo not drawn) [Example 1.36]	50
